According to US20080026067A1, “Method for Increasing Specific Surface Area of Slightly Soluble Drug” (priority 2004, published 2008):

assay: Specific surface area of the powder, multipoint BET method; assay type: physicochemical; conditions: powder as obtained
Protocol: A specific surface area of a powder of the compound A obtained by the above-described methods and the following Examples can be measured by known method, for example, multipoint BET method.
A specific surface area of the compound A was adjusted to give the crystalline powders with different specific surface area by the following method. As well, the measurement of specific surface area was performed by multipoint BET method.

| SMILES | specific surface area [m^2/g] |
| --- | --- |
| Cc1ccc(-c2nc(CCOc3cccc4c3CCC=C4CCC(=O)O)c(C)o2)cc1 [Adjustment Example 5, 3-(5-{2-[5-methyl-2-(4-methylphenyl)-1,3-oxazol-4-yl]ethoxy}-3,4-dihydronaphthalen-1-yl)propanoic acid] | 5.00 |
| Cc1ccc(-c2nc(CCOc3cccc4c3CCC=C4CCC(=O)O)c(C)o2)cc1 [Compound A, 3-(5-{2-[5-methyl-2-(4-methylphenyl)-1,3-oxazol-4-yl]ethoxy}-3,4-dihydronaphthalen-1-yl)propanoic acid] | 2.4 |
| Cc1ccc(-c2nc(CCOc3cccc4c3CCC=C4CCC(=O)O)c(C)o2)cc1 [Adjustment Example 1, 3-(5-{2-[5-methyl-2-(4-methylphenyl)-1,3-oxazol-4-yl]ethoxy}-3,4-dihydronaphthalen-1-yl)propanoic acid] | 42.24 |
| Cc1ccc(-c2nc(CCOc3cccc4c3CCC=C4CCC(=O)O)c(C)o2)cc1 [Adjustment Example 2, 3-(5-{2-[5-methyl-2-(4-methylphenyl)-1,3-oxazol-4-yl]ethoxy}-3,4-dihydronaphthalen-1-yl)propanoic acid] | 20.43 |

Further lines, results first:

| specific surface area [m^2/g] | SMILES |
| --- | --- |
| 17.8 | Cc1ccc(-c2nc(CCOc3cccc4c3CCC=C4CCC(=O)O)c(C)o2)cc1 [Adjustment Example 4(2), 3-(5-{2-[5-methyl-2-(4-methylphenyl)-1,3-oxazol-4-yl]ethoxy}-3,4-dihydronaphthalen-1-yl)propanoic acid] |
| 6.7 | Cc1ccc(-c2nc(CCOc3cccc4c3CCC=C4CCC(=O)O)c(C)o2)cc1 [Adjustment Example 4(1), 3-(5-{2-[5-methyl-2-(4-methylphenyl)-1,3-oxazol-4-yl]ethoxy}-3,4-dihydronaphthalen-1-yl)propanoic acid] |
